# Results reported in publication PMC3524758, “Development and evaluation of a novel radioiodinated vesamicol analog as a sigma receptor imaging agent” (EJNMMI Research, 2012).
# Values joined by “and” are separate entries in the source; they are usually repeats but may differ in a detail not shown here. Equal values may be shown once. Marks after values point to notes of the source that are not given here.
# Key:
# [1] = Partition coefficient (1-octanol / 0.02-M phosphate buffer); format: physicochemical
# Protocol: The partition coefficient of (+)-^125I]IV-OH was measured as described previously.
# [2] = test system: DU-145 prostate cancer cell lines; experiment: Cellular uptake and washout experiments in vitro; format: cell-based; details: DU-145 cells
# Protocol: Radiotracer uptake studies were performed in monolayer cultures of DU-145 prostate cancer cell lines, which were obtained from ATCC (Manassas, VA, USA). Cells were grown in cell culture dishes in RPMI 1640 medium with phenol red, 10% heat-inactivated fetal bovine serum (FBS), 100-μg/mL glutamine, 100-units/mL penicillin, and 100-μg/mL streptomycin at 37°C in a humidified atmosphere of 95% air and 5% carbon dioxide. Cells were plated on 6-well tissue culture plates (4 × 10^5 cells/well) for 24 h before the study and incubated at 37°C in the culture medium without FBS containing (+)-^125I]IV-OH or (+)-^125I]pIV (3.7 kBq/well), which was prepared by a method of a previous study for different time intervals (15, 30, 60, and 120 min). For the washout experiment, tumor cells exposed to a medium containing (+)-^125I]IV-OH or (+)-^125I]pIV for 60 min were washed with phosphate buffered saline (PBS) and incubated in fresh (nonradioactive) medium without FBS at 37°C for 15, 30, and 60 min. […] After incubation, cells were washed twice with ice-cold PBS and resolved by adding 0.5 mL of 1-M NaOH. The solutions were then collected and the radioactivity was determined with an auto well gamma counter (ARC-380; Aloka) and corrected for background radiation. The radioactivity of each sample was normalized for the protein level, which was determined using a Protein Assay Bicinchoninate Kit (Nacalai Tesque).
# [3] = Biodistribution in DU-145 tumor-bearing mice; format: in vivo; details: i.v., mean (SD)
# Protocol: (+)-^131I]pIV was prepared using a method described previously. To produce tumors, approximately 5 × 10^6 of the prepared DU-145 cells was injected subcutaneously into the right dorsum of 4-week-old male BALB/c nude mice (15 to 19 g, Japan SLC, Inc.). Biodistribution experiments were performed at approximately 14- to 21-day post-inoculation, i.e., when tumors reached a palpable size. Groups of four mice were intravenously administered with 100 μL of a mixed solution of (+)-^125I]IV-OH (37 kBq) and (+)-^131I]pIV (37 kBq). At 10-min, 1-, 3-, and 24-h post-injections, the mice were killed. Tissues of interest were removed and weighed, and radioactivity counts were determined with an auto well gamma counter and corrected for background radiation. A window from 16 to 71 keV was used for measuring ^125I and one from 300 to 433 keV for ^131I. The crossover of ^125I activity into the ^131I channel was negligible. Correlation factors to eliminate any crossover of ^131I activity into ^125I were determined by measuring the ^131I standard in both windows.
# [4] = Metabolite analysis in blood, tumor and other tissues (TLC); format: in vivo, mice; details: i.v., mean (SD) three samples
# Protocol: For metabolite analysis, the above-mentioned DU-145 tumor-bearing mice were intravenously administered with 100 μL of (+)-[^125I]IV-OH (3.7 MBq). At 10-min and 1-h post-injections, the mice were killed. Blood was collected and tissues of interest were removed. The blood was centrifuged at 1,000×g for 10 min at 4°C. After the plasma was collected, an equivalent volume of acetonitrile/water mixture (1:1) was added to the plasma. The mixture was centrifuged at 1,000×g for 10 min at 4°C. The tissues of interest (0.2 to 0.5 g) were homogenized in 1 mL of acetonitrile-water mixture (1:1). Each homogenized sample was centrifuged at 1,000×g for 10 min at 4°C. The supernatants were analyzed by TLC with a chloroform/methanol mixture (5:1) as a developing solvent. TLC plates were exposed to phosphor imaging plates (BAS IP SR 2025 E, Fujifilm, Tokyo, Japan) for 48 h. The exposed imaging plates were evaluated using an imaging scanner (BAS 5000 Bio-Imaging Analyzer, Fujifilm).
smiles,measurement,setting,value
"Oc1ccc(C2CCN(C3CCCCC3O)CC2)cc1[125I] (single isomer, unassigned; (+)) [(+)-[^125I]IV-OH]",log P,[1],1.13 ± 0.01
same,time at which uptake was saturated,[2],30 min
same,accumulation in the presence of haloperidol,[2]; haloperidol 10 μM in culture medium,remarkably lessened
same,intracellular radioactivity released into the supernatant,"[2]; within 60 min after medium replacement, specific uptake",Approximately 71%
same,"Biodistribution of radioactivity, Blood",[3]; 10 min post-injection,1.28 (0.13)* percent injected dose per gram tissue
same,"Biodistribution of radioactivity, Blood",[3]; 1 h post-injection,1.04 (0.10)* percent injected dose per gram tissue
same,"Biodistribution of radioactivity, Blood",[3]; 3 h post-injection,0.43 (0.09)** percent injected dose per gram tissue
same,"Biodistribution of radioactivity, Blood",[3]; 24 h post-injection,0.00 (0.00)* percent injected dose per gram tissue
same,"Biodistribution of radioactivity, Brain",[3]; 10 min post-injection,5.14 (0.50)* percent injected dose per gram tissue
same,"Biodistribution of radioactivity, Brain",[3]; 1 h post-injection,1.04 (0.08)* percent injected dose per gram tissue
same,"Biodistribution of radioactivity, Brain",[3]; 3 h post-injection,0.22 (0.02)* percent injected dose per gram tissue
same,"Biodistribution of radioactivity, Brain",[3]; 24 h post-injection,0.00 (0.00)* percent injected dose per gram tissue
same,"Biodistribution of radioactivity, Heart",[3]; 10 min post-injection,3.57 (0.40)* percent injected dose per gram tissue
same,"Biodistribution of radioactivity, Heart",[3]; 1 h post-injection,0.78 (0.05)* percent injected dose per gram tissue
same,"Biodistribution of radioactivity, Heart",[3]; 3 h post-injection,0.27(0.00)** percent injected dose per gram tissue
same,"Biodistribution of radioactivity, Heart",[3]; 24 h post-injection,0.01 (0.01)* percent injected dose per gram tissue
same,"Biodistribution of radioactivity, Intestine",[3]; 10 min post-injection,5.26 (0.61)* percent injected dose per gram tissue
same,"Biodistribution of radioactivity, Intestine",[3]; 1 h post-injection,7.96 (0.72)* percent injected dose per gram tissue
same,"Biodistribution of radioactivity, Intestine",[3]; 3 h post-injection,4.84 (0.95) percent injected dose per gram tissue
same,"Biodistribution of radioactivity, Intestine",[3]; 24 h post-injection,0.14 (0.02)* percent injected dose per gram tissue
same,"Biodistribution of radioactivity, Kidney",[3]; 10 min post-injection,35.01 (2.83)* percent injected dose per gram tissue
same,"Biodistribution of radioactivity, Kidney",[3]; 1 h post-injection,15.30 (1.80) percent injected dose per gram tissue
same,"Biodistribution of radioactivity, Kidney",[3]; 3 h post-injection,4.89 (0.87)** percent injected dose per gram tissue
same,"Biodistribution of radioactivity, Kidney",[3]; 24 h post-injection,0.04 (0.01)* percent injected dose per gram tissue
same,"Biodistribution of radioactivity, Liver",[3]; 10 min post-injection,7.82 (0.32)* percent injected dose per gram tissue
same,"Biodistribution of radioactivity, Liver",[3]; 1 h post-injection,9.80 (0.94)** percent injected dose per gram tissue
same,"Biodistribution of radioactivity, Liver",[3]; 3 h post-injection,2.81 (0.33)* percent injected dose per gram tissue
same,"Biodistribution of radioactivity, Liver",[3]; 24 h post-injection,0.06 (0.03)* percent injected dose per gram tissue
same,"Biodistribution of radioactivity, Lung",[3]; 10 min post-injection,9.74 (1.59)* percent injected dose per gram tissue
same,"Biodistribution of radioactivity, Lung",[3]; 1 h post-injection,1.85 (0.18)* percent injected dose per gram tissue
same,"Biodistribution of radioactivity, Lung",[3]; 3 h post-injection,0.63 (0.11)* percent injected dose per gram tissue
same,"Biodistribution of radioactivity, Lung",[3]; 24 h post-injection,0.01 (0.02)* percent injected dose per gram tissue
same,"Biodistribution of radioactivity, Muscle",[3]; 10 min post-injection,2.20 (0.58) percent injected dose per gram tissue
same,"Biodistribution of radioactivity, Muscle",[3]; 1 h post-injection,0.45 (0.03)* percent injected dose per gram tissue
same,"Biodistribution of radioactivity, Muscle",[3]; 3 h post-injection,0.26 (0.10) percent injected dose per gram tissue
same,"Biodistribution of radioactivity, Muscle",[3]; 24 h post-injection,0.01 (0.01)* percent injected dose per gram tissue
same,"Biodistribution of radioactivity, Pancreas",[3]; 10 min post-injection,25.04 (2.40)* percent injected dose per gram tissue
same,"Biodistribution of radioactivity, Pancreas",[3]; 1 h post-injection,12.80 (0.97)* percent injected dose per gram tissue
same,"Biodistribution of radioactivity, Pancreas",[3]; 3 h post-injection,2.94 (0.49)* percent injected dose per gram tissue
same,"Biodistribution of radioactivity, Pancreas",[3]; 24 h post-injection,0.01 (0.01)* percent injected dose per gram tissue
same,"Biodistribution of radioactivity, Spleen",[3]; 10 min post-injection,8.11 (1.24) percent injected dose per gram tissue
same,"Biodistribution of radioactivity, Spleen",[3]; 1 h post-injection,1.84 (0.11)* percent injected dose per gram tissue
same,"Biodistribution of radioactivity, Spleen",[3]; 3 h post-injection,0.60 (0.12)* percent injected dose per gram tissue
same,"Biodistribution of radioactivity, Spleen",[3]; 24 h post-injection,0.01 (0.02)* percent injected dose per gram tissue
same,"Biodistribution of radioactivity, Stomach",[3]; 10 min post-injection,1.18 (0.36) percent injected dose
same,"Biodistribution of radioactivity, Stomach",[3]; 1 h post-injection,0.62 (0.18) percent injected dose
same,"Biodistribution of radioactivity, Stomach",[3]; 3 h post-injection,0.55 (0.25) percent injected dose
same,"Biodistribution of radioactivity, Stomach",[3]; 24 h post-injection,0.03 (0.02)* percent injected dose
same,"Biodistribution of radioactivity, Tumor",[3]; 10 min post-injection,9.55 (0.64)** percent injected dose per gram tissue
same,"Biodistribution of radioactivity, Tumor",[3]; 1 h post-injection,5.45 (0.70) percent injected dose per gram tissue
same,"Biodistribution of radioactivity, Tumor",[3]; 3 h post-injection,2.57 (0.41) percent injected dose per gram tissue
same,"Biodistribution of radioactivity, Tumor",[3]; 24 h post-injection,0.06 (0.04)** percent injected dose per gram tissue
same,"percent of intact (+)-[^125I]IV-OH, Blood",[4]; 10 min post-injection,17.0 (9.0) percent
same,"percent of intact (+)-[^125I]IV-OH, Blood",[4]; 1 h post-injection,0.9% and 0.9 (1.0) percent
same,"percent of intact (+)-[^125I]IV-OH, Brain",[4]; 10 min post-injection,96.4 (1.1) percent
same,"percent of intact (+)-[^125I]IV-OH, Brain",[4]; 1 h post-injection,73.7 (8.4) percent
same,"percent of intact (+)-[^125I]IV-OH, Kidney",[4]; 10 min post-injection,19.8 (3.7) percent
same,"percent of intact (+)-[^125I]IV-OH, Kidney",[4]; 1 h post-injection,2.6% and 2.6 (1.8) percent
same,"percent of intact (+)-[^125I]IV-OH, Liver",[4]; 10 min post-injection,5.4 (7.4) percent
same,"percent of intact (+)-[^125I]IV-OH, Liver",[4]; 1 h post-injection,0.1% and 0.1 (0.2) percent
same,"percent of intact (+)-[^125I]IV-OH, Tumor",[4]; 10 min post-injection,93.1 (4.3) percent
same,"percent of intact (+)-[^125I]IV-OH, Tumor",[4]; 1 h post-injection,70.2 (5.6) percent
